Assay results as given in article PMC10406430 (Neuro-Oncology Advances, 2023).
Like-named read-outs stand apart in the source and are kept apart here. Marks after values point to notes of the source that are not given here.

What was measured:
[1] = parameters: method as in earlier work; settings: animal studies and a single clinical trial; ref 1-3 (supplement list); cited from earlier work
glioma = settings: PAC-1 in combination with TMZ and radiation; cited from earlier work
[2] = tested on: cytochrome P450 isozymes (CYP) 2C19, 2D6, and 3A4; assay: In vitro studies of hepatic metabolism pathways; assay type: in vitro ADME; settings: preliminary evidence from in vitro studies (unpublished); CYP 2C19, 2D6, 3A4
human glioma cell lines = settings: single agent and in combination with TMZ; cited from earlier work
[3] = tested on: intracranial models in rodents; settings: syngeneic and xenograft models, single agent and in combination with TMZ; cited from earlier work
[4] = Plasma pharmacokinetics of PAC-1 and TMZ (LC-MS/MS, non-compartmental analysis); assay type: in vivo, human; settings: for AUC(0-inf) / CL/F / Cmax / Tmax / half-life: human, plasma, po; for AUC(0-inf): read-out: AUC0-∞, geometric mean (geometric CV%); for CL/F: read-out: CL/F, geometric mean (geometric CV%) (converted); for Cmax: read-out: Cmax, geometric mean (geometric CV%); for Tmax: read-out: Tmax, median (range); for half-life: read-out: t1/2-λ, geometric mean (geometric CV%) (converted)
Description: Pharmacokinetics (PK) were assessed in each dose cohort for PAC-1 following doses administered on days 7 (without TMZ) and 12 (with TMZ) of the first cycle and TMZ on day 12 of cycle 1. Both drugs were administered under fasting conditions in the morning for PAC-1 and morning or evening for TMZ. To facilitate the PK study and amplify any PK interaction between drugs, the administration of TMZ was standardized to occur in the morning on cycle 1, day 12 two hours before PAC-1. Plasma samples were collected on the mornings of days 7 and 12 of cycle 1 prior to oral ingestion of TMZ (day 12 only), 1 hour (day 12) or immediately (day 7) before administration of PAC-1 and at 0.5, 1, 2, 4, 6, 8, 10, and 24 hours after ingestion of PAC-1 (both days). The PAC-1 and TMZ concentrations in plasma were determined by validated high-performance liquid chromatography and tandem mass spectrometry (LC-MS/MS) assays. Non-compartmental analysis of the PAC-1 and TMZ plasma concentration-time data was performed using WinNonlin version 8.1 (Certara. L.P., Princeton, NJ). The analysis occurred at steady state for PAC-1 and non-steady state conditions for TMZ. Parameters included: maximum plasma concentration (Cmax), time at Cmax (Tmax), minimum plasma concentration at steady-state (Css,min), area under the PAC-1 plasma concentration-time curve over the steady-state dosing interval (AUC0-τ,ss), area under the TMZ plasma concentration-time curve from time zero to infinity (AUC0-∞), oral clearance (CL/F), volume of distribution (V/F), and terminal phase half-life (t1/2).
The PK parameters were logarithmically (natural) transformed and Css-max, Css-min, and AUC0-τ,ss normalized for a 500 mg dose across dose groups for the analysis by multiplying the parameter by the quotient of 500 mg divided by the actual dose. […] Lack of interaction was concluded when the 90% CI for the ratio was contained within the conventional bioequivalence range of 0.80 to 1.25.

[5] = mice; consistent with cLogBB prediction models; cited from earlier work
[6] = tested on: P-glycoprotein efflux pump; settings: cited from earlier work
systemic solid tumors = settings: cited from earlier work
[7] = PAC-1 375 mg/day oral, Cycle 1 Day 7 (alone)
[8] = PAC-1 375 mg/day oral, Cycle 1 Day 12 (with TMZ)
[9] = PAC-1 500 mg/day oral, Cycle 1 Day 7 (alone)
[10] = PAC-1 500 mg/day oral, Cycle 1 Day 12 (with TMZ)
[11] = PAC-1 625 mg/day oral, Cycle 1 Day 7 (alone)
[12] = PAC-1 625 mg/day oral, Cycle 1 Day 12 (with TMZ)
[13] = PAC-1, Cycle 1 Day 12 (with TMZ)/Cycle 1 Day 7 (alone)
[14] = PAC-1, Cycle 1 Day 12 (with TMZ)/Cycle 1 Day 7 (alone), normalized to 500 mg
[15] = 150 mg/m2, TMZ 150 mg/m^2 oral with PAC-1 375 mg/day
[16] = 150 mg/m2, TMZ 150 mg/m^2 oral with PAC-1 500 mg/day
[17] = 150 mg/m2, TMZ 150 mg/m^2 oral with PAC-1 625 mg/day

C=CCc1cccc(/C=N/NC(=O)CN2CCN(Cc3ccccc3)CC2)c1O [PAC-1, procaspase-activating compound-1]
extraction, elimination and oral bioavailability [1]: high extraction ratio, hepatically eliminated drug with low and variable oral bioavailability | responses in canine cancer patients with glioma (glioma): all treated glioma dogs had responses, including one complete response | pathways of hepatic metabolism [2]: possible pathways of hepatic metabolism | activity against human glioma cell lines (human glioma cell lines): promising activity | activity in intracranial models in rodents [3]: promising activity | increase in PAC-1 CL/F with dexamethasone co-administration ([4]; 375 and 500 mg/day groups): approximately 18% | AUCss,0-τ, geometric mean (geometric CV%) [4, 7]: 23434 (12.0) h*ng/ml | CL/F, geometric mean (geometric CV%) [4, 7]: 185 (26.6) ml/h/kg | Cmax, geometric mean (geometric CV%) [4, 7]: 1728 (19.6) ng/ml | Css-min, geometric mean (geometric CV%) [4, 7]: 647.8 (11.0) ng/ml | Tmax, median (range) [4, 7]: 3.00 (1.98-6.00) h | V/F, geometric mean (geometric CV%) [4, 7]: 6.1 (36.1) L/kg | AUCss,0-τ, geometric mean (geometric CV%) [4, 8]: 22519 (13.8) h*ng/ml | CL/F, geometric mean (geometric CV%) [4, 8]: 193 (32.9) ml/h/kg | Cmax, geometric mean (geometric CV%) [4, 8]: 1802 (19.7) ng/ml | Css-min, geometric mean (geometric CV%) [4, 8]: 525.4 (12.3) ng/ml | Tmax, median (range) [4, 8]: 3.00 (1.98 - 9.83) h | V/F, geometric mean (geometric CV%) [4, 8]: 5.4 (27.3) L/kg | t1/2-λ, geometric mean (geometric CV%) [4, 8]: 20.0 (12.0) h | AUCss,0-τ, geometric mean (geometric CV%) [4, 9]: 32823 (28.0) h*ng/ml | CL/F, geometric mean (geometric CV%) [4, 9]: 203 (38.1) ml/h/kg | Cmax, geometric mean (geometric CV%) [4, 9]: 3026 (34.0) ng/ml | Css-min, geometric mean (geometric CV%) [4, 9]: 776.8 (27.9) ng/ml | Tmax, median (range) [4, 9]: 2.34 (0.50- 5.92) h | V/F, geometric mean (geometric CV%) [4, 9]: 5.1 (53.0) L/kg | t1/2-λ, geometric mean (geometric CV%) [4, 9]: 17.6 (18.9) h | AUCss,0-τ, geometric mean (geometric CV%) [4, 10]: 34274 (13.2) h*ng/ml | CL/F, geometric mean (geometric CV%) [4, 10]: 194 (26.0) ml/h/kg | Cmax, geometric mean (geometric CV%) [4, 10]: 2938 (32.2) ng/ml | Css-min, geometric mean (geometric CV%) [4, 10]: 770.0 (19.6) ng/ml | Tmax, median (range) [4, 10]: 2.01 (1.92 - 3.07) h | V/F, geometric mean (geometric CV%) [4, 10]: 5.0 (40.3) L/kg | t1/2-λ, geometric mean (geometric CV%) [4, 10]: 17.9 (31.1) h | AUCss,0-τ, geometric mean (geometric CV%) [4, 11]: 24634 (45.2) h*ng/ml | CL/F, geometric mean (geometric CV%) [4, 11]: 322 (38.0) ml/h/kg | Cmax, geometric mean (geometric CV%) [4, 11]: 1876 (47.5) ng/ml | Css-min, geometric mean (geometric CV%) [4, 11]: 565.9 (47.4) ng/ml | Tmax, median (range) [4, 11]: 1.98 (0.82 – 2.00) h | V/F, geometric mean (geometric CV%) [4, 11]: 8.7 (40.6) L/kg | t1/2-λ, geometric mean (geometric CV%) [4, 11]: 18.7 (42.9) h | AUCss,0-τ, geometric mean (geometric CV%) [4, 12]: 21854 (39.7) h*ng/ml | CL/F, geometric mean (geometric CV%) [4, 12]: 363 (31.2) ml/h/kg | Cmax, geometric mean (geometric CV%) [4, 12]: 2124 (57.9) ng/ml | Css-min, geometric mean (geometric CV%) [4, 12]: 480.0 (40.4) ng/ml | Tmax, median (range) [4, 12]: 1.03 (1.00 - 4.17) h | V/F, geometric mean (geometric CV%) [4, 12]: 9.7 (17.0) L/kg | t1/2-λ, geometric mean (geometric CV%) [4, 12]: 18.5 (32.9) h | PK interactions between PAC-1 and TMZ ([4]; PAC-1 375, 500 or 625 mg/day with TMZ 150 mg/m^2): did not identify PK interactions | CL/F, Geometric Least-Square Mean Ratio (90%CI) [4, 13]: 1.07 (0.98, 1.17) | t1/2-λ, Geometric Least-Square Mean Ratio (90%CI) [4, 13]: 1.04 (0.90, 1.22) | AUCss,0-τ, Geometric Least-Square Mean Ratio (90%CI) [4, 14]: 0.93 (0.85, 1.02) ^† | Cmax, Geometric Least-Square Mean Ratio (90%CI) [4, 14]: 1.02 (0.85, 1.23) ^† | Css-min, Geometric Least-Square Mean Ratio (90%CI) [4, 14]: 0.86 (0.80, 0.92) ^† | dose proportionality of PAC-1 plasma concentrations ([4]; between 375 mg/day and 500 mg/day): increased proportionally | PAC-1 plasma concentrations below predicted levels ([4]; single subject in the 625 mg group, same without and with TMZ): approximately 70% | PAC-1 CL/F ([4]; subjects from the 375 and 500 mg/day groups receiving dexamethasone): 3.68 mL/min/kg | blood-brain barrier penetration [5]: significantly penetrate the blood-brain barrier | substrate of the P-glycoprotein efflux pump [6]: not a substrate | recommended phase 2 dose (RP2D) (systemic solid tumors; oral single agent PAC-1, patients with systemic solid tumors): 750 mg/day | relationship between PAC-1 dose and AUC (systemic solid tumors; single agent, doses up to 750 mg/day): linear relationship

Cn1nnc2c(C(N)=O)ncn2c1=O [temozolomide, reference compound]
impact of PAC-1 dose on PK parameters of TMZ (mixed effects analyses) ([4]; PAC-1 375, 500, 625 mg/day): did not significantly (p > 0.05) impact any PK parameters of TMZ | V/F, geometric mean (geometric CV%) ([4]; TMZ 150 mg/m^2 oral with PAC-1 375 mg/day): 0.40 (16.7) L/kg | V/F, geometric mean (geometric CV%) ([4]; TMZ 150 mg/m^2 oral with PAC-1 500 mg/day): 0.44 (15.0) L/kg | V/F, geometric mean (geometric CV%) ([4]; TMZ 150 mg/m^2 oral with PAC-1 625 mg/day): 0.44 (15.7) L/kg | AUC(0-inf) [4, 15]: 22800 ng·h/mL | CL/F [4, 15]: 2.52 mL/min/kg | Cmax [4, 15]: 7310 ng/mL | Tmax [4, 15]: 1 h | half-life [4, 15]: 1.86 h | AUC(0-inf) [4, 16]: 23800 ng·h/mL | CL/F [4, 16]: 2.63 mL/min/kg | Cmax [4, 16]: 7750 ng/mL | Tmax [4, 16]: 0.98 h | half-life [4, 16]: 1.93 h | AUC(0-inf) [4, 17]: 23900 ng·h/mL | CL/F [4, 17]: 2.67 mL/min/kg | Cmax [4, 17]: 7630 ng/mL | Tmax [4, 17]: 1 h | half-life [4, 17]: 1.92 h
